# Experimental data reported in patent US20210369155A1, “Analyte Sensors and Sensing Methods for Detecting Inhibitors of Diaphorase” (Abbott Diabetes Care Inc., priority 2020, published 2021).
# Columns and labels:
# Diaphorase [1] = test: Detection of dicoumarol with sensors whose active area holds glucose dehydrogenase, NAD and rate-limiting diaphorase: glucose and dicoumarol titrated into PBS; assay type: biochemical; details: Sensors 5-8; PBS with 500 μM NAD, glucose up to 50 μM; DCM titrated up to 160 μM
# Protocol: Example 2: Detection of Dicoumarol Using an Analyte Sensor Having an Active Area with Glucose Dehydrogenase and a Rate-Limited Electron Transfer to the Working Electrode. For this example, the spotting formulations shown in Table 2 below were coated onto separate carbon working electrodes. A micro-syringe was use to deposit 35 nL of each formulation as a single spot having an area of around 0.2 mm^2 upon separate carbon working electrodes. Following deposition, the working electrodes were cured overnight at 25° C.
# Glucose and dicoumarol were then titrated to PBS solutions in which the sensors were immersed. A 500 μM quantity of NAD was first added to the buffer solution, followed by three additions of glucose up to 50 μM. Thereafter, dicoumarol (DCM) was titrated up to 160 μM. FIGS. 14A and 14B are graphs showing the results of titrating glucose and dicoumarol (DCM) into PBS solutions exposed to electrodes having variable amounts of NAD-dependent glucose dehydrogenase in an active area thereon. […] As shown, increasing amounts of glucose dehydrogenase increased the signal response during glucose addition and during DCM addition.
# Diaphorase [2] = test: Inhibition of diaphorase by dicoumarol: NADH and dicoumarol titrated into PBS exposed to diaphorase-coated carbon working electrodes; assay type: biochemical
# Protocol: Example 1: Inhibition of Diaphorase by Dicoumarol. For this example, the spotting formulations shown in Table 1 below were coated onto separate carbon working electrodes. A micro-syringe was use to deposit 35 nL of each formulation as a single spot having an area of around 0.2 mm^2 upon separate carbon working electrodes. Following deposition, the working electrodes were cured overnight at 25° C.
# The electrodes were exposed to fresh phosphate buffered saline (PBS) solutions, and varying amounts of NADH and dicoumarol were then titrated into the buffered solutions. No glucose or GDH was added to “power” the sensors and complete the enzyme system specified above (FIG. 3B). […] To the buffered solution containing 30 μM NADH was then titrated dicoumarol up to a concentration of 100 μM. […] FIG. 10 is a graph showing the results of titrating NADH and dicoumarol (DCM) into PBS solutions exposed to the analyte sensors of Example 1 (Sensors 1-4). […] A higher signal resulted for Sensor 2 as a result of its higher concentration of diaphorase. Given the goal of making the sensor response to be diaphorase limited, further optimization work centered around optimizing the sensor response at a low-concentration loading of the diaphorase. […]
smiles,measurement,setting,value
O=c1oc2ccccc2c(O)c1Cc1c(O)c2ccccc2oc1=O [dicoumarol],"sensor current response during DCM addition (FIGS. 14A, 14B)",Diaphorase [1],response decreased as increasing amounts of DCM were added
same,"normalized sensor response as a function of dicoumarol concentration (FIGS. 11A, 11B, 13)","Diaphorase [2]; 0.2 mg/mL diaphorase, 0.4 mg/mL electron transfer agent, NADH titrated up to 160 μM",strong inhibition
same,sensor signal as the dicoumarol concentration increased (FIG. 10),"Diaphorase [2]; only Sensors 2 and 4 (0.4 mg/mL Formula 1 polymer), PBS with 30 μM NADH, dicoumarol titrated up to 100 μM, no glucose or GDH",sudden and sensitive decrease in signal
